Earlier results in paper PMC10591878 (ACS infectious diseases, 2023).

How the values were obtained:
[1] = system: P. falciparum Dd2-B2 parasites; details: for MIR: Dd2-B2; for resistant parasites in 3 wells of 3 × 10^7 / resistant parasites in 4 wells of 2.5 × 10^6: Dd2-B2, 3 × EC50
[2] = system: Dd2-B2 Pf20S WT and mutant lines; details: β6 N151Y vs Dd2-B2 parental line

SMILES | MIR [1] | resistant parasites in 3 wells of 3 × 10^7 [1] | resistant parasites in 4 wells of 2.5 × 10^6 [1] | EC50 fold shift against selection compound [2] | number of parasites with which resistance was obtained [1]
O=C(NC1CCCC1)[C@@H]1CCCCOc2cccc(c2)C[C@H](N2CCCC2=O)C(=O)N[C@@H](CCN2CCOCC2)C(=O)N1 [TDI-8304] | 3×10^7 | 3/3 wells | 0/4 wells | 1.7× | –
CC(C)C[C@@H](/C=C/S(C)(=O)=O)NC(=O)[C@H](CC(C)C)NC(=O)[C@H](Cc1c[nH]c2ccccc12)NC(=O)CN1CCOCC1 [WLL] | >1 × 10^9 | none | 0/4 wells | – | 2 × 10^9 parasites
